{"source": "patent US20140128402A1", "about": "“PHARMACEUTICAL COMBINATION” (IPCA Laboratories Limited, priority 2011, published 2014)", "test_system": "STZ-induced diabetic rats", "assay": "Study No 1: blood glucose in STZ-induced diabetic rats (HCQ with sitagliptin)", "type": "in vivo, Wistar rats", "protocol": "In this experiment 48 Wistar rats weighing 130-150 g of either sex were divided randomly into 8 groups consisting of 6 rats each. The study drugs suspended in vehicle [0.1% w/v suspension of Tween 80 and carboxymethylcellulose (CMC) in water] were administered for orally for 21 days. Group 1 (normal vehicle control) consisted of normal rats that neither received streptozotocin nor any test drug; Group 2 served as streptozotocin induced diabetic control (Diabetes was induced in rats by single administration of streptozotocin (60 mg/kg/i.p) dissolved in 0.1 M-citrate buffer, pH 4.5). Forty-eight hours later, blood samples were collected and glucose levels were determined to confirm the development of diabetes.\nBlood glucose level was measured in normal and experimental rats at 1st, 7th, 14th and 21st day of administration. For other biochemical parameters i.e. Insulin, HbA1c, Triglycerides, Total Cholesterol, HDL, SGOT, SGPT, Total Protein, Albumin, Creatinine and Urea Blood samples were collected 1 h after the last dose administration from 18 h fasted rats through the retro-orbital plexus under chloroform anesthesia and analyzed using autoanalyzer (Microlab 2000). Other parameters like body weight, food intake and water intake were evaluated weekly till day 21st."}
{"compound": "CCN(CCO)CCCC(C)Nc1ccnc2cc(Cl)ccc12", "note": "(stereo not drawn) [HCQ, Hydroxychloroquine]", "values": [{"measurement": "Plasma glucose concentration", "setting": "1st day, subtherapeutic dose: STG 5.5, HCQ 23, STG+HCQ 5.5+23 mg/kg oral", "result": "253.33 ± 24.86", "unit": "mg/dL"}, {"measurement": "Plasma glucose concentration", "setting": "1st day, therapeutic dose: STG 11, HCQ 46, STG+HCQ 11+46 mg/kg oral", "result": "267.83 ± 10.53", "unit": "mg/dL"}, {"measurement": "Plasma glucose concentration", "setting": "7th day, subtherapeutic dose: STG 5.5, HCQ 23, STG+HCQ 5.5+23 mg/kg oral", "result": "248.67 ± 24.63", "unit": "mg/dL"}, {"measurement": "Plasma glucose concentration", "setting": "7th day, therapeutic dose: STG 11, HCQ 46, STG+HCQ 11+46 mg/kg oral", "result": "243.83 ± 10.78", "unit": "mg/dL"}, {"measurement": "Plasma glucose concentration", "setting": "14th day, subtherapeutic dose: STG 5.5, HCQ 23, STG+HCQ 5.5+23 mg/kg oral", "result": "241.33 ± 24.73", "unit": "mg/dL"}, {"measurement": "Plasma glucose concentration", "setting": "14th day, therapeutic dose: STG 11, HCQ 46, STG+HCQ 11+46 mg/kg oral, 46 mg/kg", "result": "230.00 ± 12.96", "unit": "mg/dL"}, {"measurement": "Plasma glucose concentration", "setting": "14th day, therapeutic dose: STG 11, HCQ 46, STG+HCQ 11+46 mg/kg oral, listed as hydroxychloroquine, 46 mg/kg", "result": "significant improvement"}, {"measurement": "Plasma glucose concentration", "setting": "21st day, subtherapeutic dose: STG 5.5, HCQ 23, STG+HCQ 5.5+23 mg/kg oral", "result": "232.00 ± 19.92", "unit": "mg/dL"}, {"measurement": "Plasma glucose concentration", "setting": "21st day, therapeutic dose: STG 11, HCQ 46, STG+HCQ 11+46 mg/kg oral", "result": "207.67 ± 7.53", "unit": "mg/dL"}]}
